Reference: US11613542B2, “Sulfonylureas and sulfonylthioureas as NLRP3 inhibitors” (Inflazome Limited, priority 2017, dated 2023)
pIC50: −log10 of the molar value. Structures can show the parent of a compound that is named as a salt. Where two headings read alike, the source gives them in different places.

How the values were obtained:
NLRP3 [1] = target: T1, NLRP3 (Homo sapiens, UniProt Q96P20); experiment: Human whole blood IL1β release assay; type: cell-based; design: Human whole blood in Li-heparin tubes was obtained from healthy donors; from tissue; host or cells: human whole blood from healthy donors, LPS-primed, nigericin-stimulated; conditions: human whole blood, 1 μg/ml LPS, compound 3 hrs, nigericin 10 μM 1 hr, IL-1β AlphaLisa; read-out: HWB IC50
Summary of the method: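 Healthy-donor human whole blood (Li-heparin) primed with 1 μg/ml LPS, with compound (8-point half-log, 10 μM top) or 0.1% DMSO for 3 h at 37 °C, then 10 μM nigericin (final) for 1 h. Supernatant IL-1β read by AlphaLISA; IC50 from 4-parameter variable-slope fit.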

[2] = Pharmacokinetic parameters in male Sprague Dawley rats (intravenous and oral administration); type: in vivo; conditions: dose per compound (mg/kg); for bioavailability: rat; for clearance / half-life / AUC / Vd / CL/F / Cmax / Tmax / Cl / T1/2 / Vdss / Cl/F: rat plasma; for Vd: read-out: Vdss
Experimental: Pharmacokinetic parameters were determined in male Sprague Dawley rats (Charles River, UK, 250-350 g; or Vital River Laboratory Animal Technology Co Ltd, Beijing, China, 7-9 weeks old). Animals were individually housed during the study and maintained under a 12 h light/dark cycle. Animals had free access to food and water except that some orally dosed animals were food deprived overnight prior to the study.
For intravenous administration, compounds were formulated as a solution in water or DMSO:PBS [10:90] in 2 mL/kg dosing volume and administered via tail vein. For oral administration, compounds were formulated as a solution in water or DMSO:water [10:90] in 5 mL/kg dosing volume and administered orally.
Serial blood samples (about 120-300 μL) were taken from each animal at each of 8 time-points post dose (0.083, 0.25, 0.5, 1, 2, 4, 8 and 24 h) or at each of 12 time-points post dose (0.03, 0.1, 0.17, 0.25, 0.5, 1, 2, 4, 6, 8,12 and 24 h) or pre-dose and at each of 9 time-points post dose (0.25, 0.5, 1, 2, 4, 6, 8, 12 and 24 h). Samples were held on ice for no longer than 30 minutes before centrifugation (10,000 rpm (8,385 g) for 3 minutes; or 5,696 rpm (3,000 g) for 15 minutes) for plasma generation. Plasma was frozen on dry ice prior to bioanalysis. PK parameters were generated from LC-MS/MS data using Dotmatics or Phoenix WinNonlin 6.3 software.

NLRP3 [3] = target: T1, NLRP3; experiment: THP-1 cells pyroptosis assay; type: cell-based; design: Seed THP-1 cells (25,000 cells/well) containing 1.0 μg/ml LPS; host or cells: THP-1 cells, LPS-primed, nigericin-stimulated; conditions: THP-1 cells, 1.0 μg/ml LPS, compound 3 hrs, nigericin 5 μM 1 hr, resazurin readout; read-out: THP IC50
Summary of the method: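 THP-1 cells (25,000/well) in serum-free RPMI with 1.0 μg/ml LPS, treated with compound (8-point half-log dilution, 10 μM top, 0.1% DMSO), then nigericin 5 μM final. Viability read by resazurin (100 μM final, 1-2 h, 37° C) fluorescence Ex 560/Em 590 nm; IC50 from 4-parameter variable-slope fit.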

[4] = male, Sprague Dawley, plasma, oral administration, read-out: Bioavailability
[5] = male, Sprague Dawley, intravenous administration
[6] = male, Sprague Dawley, intravenous administration, read-out: AUC
[7] = male, Sprague Dawley, oral administration
[8] = male, Sprague Dawley, oral administration, read-out: AUC
[9] = male, Sprague Dawley, oral administration, read-out: Cmax
[10] = male, Sprague Dawley, oral administration, read-out: Tmax

T1 sequence (Q96P20 whole entry): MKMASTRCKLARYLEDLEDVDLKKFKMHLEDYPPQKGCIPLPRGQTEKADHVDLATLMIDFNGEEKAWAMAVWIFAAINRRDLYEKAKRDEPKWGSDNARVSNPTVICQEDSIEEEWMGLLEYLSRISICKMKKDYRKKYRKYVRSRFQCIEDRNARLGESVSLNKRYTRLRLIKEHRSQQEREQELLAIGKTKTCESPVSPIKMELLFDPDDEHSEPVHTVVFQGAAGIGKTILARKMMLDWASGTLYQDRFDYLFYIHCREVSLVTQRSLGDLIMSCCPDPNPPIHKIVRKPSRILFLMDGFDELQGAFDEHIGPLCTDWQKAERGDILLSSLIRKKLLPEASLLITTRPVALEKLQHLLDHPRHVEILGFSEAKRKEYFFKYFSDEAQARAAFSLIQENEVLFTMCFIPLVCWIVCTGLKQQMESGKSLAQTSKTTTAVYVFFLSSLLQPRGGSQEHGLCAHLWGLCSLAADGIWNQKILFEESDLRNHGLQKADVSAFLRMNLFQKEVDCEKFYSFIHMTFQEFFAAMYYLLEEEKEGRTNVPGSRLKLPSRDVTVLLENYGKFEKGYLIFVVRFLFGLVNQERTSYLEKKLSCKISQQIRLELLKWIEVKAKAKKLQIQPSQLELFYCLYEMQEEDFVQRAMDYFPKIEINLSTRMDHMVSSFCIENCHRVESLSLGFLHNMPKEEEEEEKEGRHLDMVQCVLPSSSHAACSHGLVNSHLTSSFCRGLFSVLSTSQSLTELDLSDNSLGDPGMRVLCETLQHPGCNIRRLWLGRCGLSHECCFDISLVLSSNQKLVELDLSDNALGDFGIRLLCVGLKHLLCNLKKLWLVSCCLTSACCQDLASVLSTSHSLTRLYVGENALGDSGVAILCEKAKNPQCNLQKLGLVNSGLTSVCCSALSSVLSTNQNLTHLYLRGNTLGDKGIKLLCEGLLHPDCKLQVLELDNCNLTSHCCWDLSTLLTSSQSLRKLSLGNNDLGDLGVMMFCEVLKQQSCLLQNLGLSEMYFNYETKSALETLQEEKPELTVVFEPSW

Row | pIC50 (NLRP3 [1]) | clearance [2, 5] [mL/min/kg] | half-life [2, 5] [min] | AUC [2, 6] [ng·h/mL] | Vd [2, 5] [L/kg] | pIC50 (NLRP3 [3]) | AUC ([2]; intravenous administration) [ng·h/mL] | Cl ([2]; intravenous administration) [mL/min/kg] | T1/2 ([2]; intravenous administration) [h] | Vdss ([2]; intravenous administration) [L/kg] | further results | SMILES
1 | > 6.40 | 2.6 | 222 | 6420 | 0.38 | > 6.19 |  |  |  |  | bioavailability [2, 4]: 52.7%; CL/F [2, 7]: 5 mL/min/kg; half-life [2, 7]: 180 min; AUC [2, 8]: 15200 ng·h/mL; Cmax [2, 9]: 3250 ng/mL; Tmax [2, 10]: 60 min | CN(C)CCn1ccc(S(=O)(=O)NC(=O)Nc2c3c(cc4c2CCC4)CCC3)n1 [Example 7, 1-(2-(Dimethylamino)ethyl)-N-((1,2,3,5,6,7-hexahydro-s-indacen-4-yl)carbamoyl)-1H-pyrazole-3-sulfonamide]
2 | > 5.80 | 1.1 | 150 | 15800 | 0.18 | > 6.80 |  |  |  |  | bioavailability [2, 4]: 18.5%; CL/F [2, 7]: 6.1 mL/min/kg; half-life [2, 7]: 138 min; AUC [2, 8]: 8760 ng·h/mL; Cmax [2, 9]: 2810 ng/mL; Tmax [2, 10]: 40.2 min | CN(C)CC(C)(C)n1ccc(S(=O)(=O)NC(=O)Nc2c3c(cc4c2CCC4)CCC3)n1 [Example 17, 1-(1-(Dimethylamino)-2-methylpropan-2-yl)-N-((1,2,3,5,6,7-hexahydro-s-indacen-4-yl)carbamoyl)-1H-pyrazole-3-sulfonamide]
3 | > 6.40 | 2.4 | 174 | 11300 | 0.32 | > 6.80 |  |  |  |  |  | CN1CC[C@H]1Cn1ccc(S(=O)(=O)NC(=O)Nc2c3c(cc4c2CCC4)CCC3)n1 [Example 20, (S)—N-((1,2,3,5,6,7-Hexahydro-s-indacen-4-yl)carbamoyl)-1-((1-methylazetidin-2-yl)methyl)-1H-pyrazole-3-sulfonamide]
4 | > 5.80 |  |  |  |  | > 6.80 | 302.7 | 55.3 | 1.6 | 1.66 |  | CC(C)n1nc(S(=O)(=O)NC(=O)Nc2c3c(cc4c2CCC4)CCC3)cc1C(=O)N1CCC1 [Example 131, 5-(Azetidine-1-carbonyl)-N-((1,2,3,5,6,7-hexahydro-s-indacen-4-yl)carbamoyl)-1-isopropyl-1H-pyrazole-3-sulfonamide, partial ammonium salt]
5 | > 6.40 |  |  |  |  | > 6.80 | 415.0 | 40.3 | 6.4 | 7.96 |  | CC(C)c1cc(F)cc(C(C)C)c1NC(=O)NS(=O)(=O)c1cc(C(=O)N2CCC2)n(C)n1 [Example 145, 5-(azetidine-1-carbonyl)-N-((4-fluoro-2,6-diisopropylphenyl)carbamoyl)-1-methyl-1H-pyrazole-3-sulfonamide, sodium salt]
6 | > 6.40 |  |  |  |  | > 6.19 | 283.3 | 59.2 | 3.3 | 4.08 | AUC ([2]; oral administration): 769.7 ng·h/mL; Cl/F ([2]; oral administration): 109.8 mL/min/kg; Cmax ([2]; oral administration): 494.7 ng/mL; T1/2 ([2]; oral administration): 9.7 h; Tmax ([2]; oral administration): 10.2 min; bioavailability ([2]; oral administration): 54.3 | CC(C)c1cc(F)cc(C(C)C)c1NC(=O)NS(=O)(=O)c1cc(C(=O)N(C)C)n(C)n1 [Example 160, 3-(N-((4-Fluoro-2,6-diisopropylphenyl)carbamoyl)sulfamoyl)-N,N,1-trimethyl-1H-pyrazole-5-carboxamide, sodium salt]
7 | > 6.10 |  |  |  |  | > 6.80 | 1723.1 | 25.0 | 0.1 | 0.24 |  | CCN(C)C(=O)c1cc(S(=O)(=O)NC(=O)Nc2c3c(cc4c2CCC4)CCC3)nn1C [Example 162, N-Ethyl-3-(N-((1,2,3,5,6,7-hexahydro-s-indacen-4-yl)carbamoyl)sulfamoyl)-N,1-dimethyl-1H-pyrazole-5-carboxamide]
8 | > 6.40 |  |  |  |  | > 6.19 | 333.7 | 48.7 | 0.5 | 0.99 |  | CC(C)c1cccc(C(C)C)c1NC(=O)NS(=O)(=O)c1cc(C(=O)N(C)C)n(C)n1 [Example 167, 3-(N-((2,6-Diisopropylphenyl)carbamoyl)sulfamoyl)-N,N,1-trimethyl-1H-pyrazole-5-carboxamide, sodium salt]
9 | > 6.40 |  |  |  |  | > 6.80 | 3389.9 | 24.8 | 25.3 | 17.78 | AUC ([2]; oral administration): 1052.0 ng·h/mL; Cl/F ([2]; oral administration): 49.5 mL/min/kg; Cmax ([2]; oral administration): 599.6 ng/mL; T1/2 ([2]; oral administration): 3.4 h; Tmax ([2]; oral administration): 15 min; bioavailability ([2]; oral administration): 62.0 | CN(C)C(=O)c1cc(S(=O)(=O)NC(=O)Nc2c3c(cc4c2CCC4)CCC3)nn1C [Example 169, 3-(N-((1,2,3,5,6,7-Hexahydro-s-indacen-4-yl)carbamoyl)sulfamoyl)-N,N,1-trimethyl-1H-pyrazole-5-carboxamide, sodium salt]
10 | > 6.40 |  |  |  |  | > 6.80 | 786.6 | 114.1 | 0.3 | 2.37 |  | CN(CCO)C(=O)c1cc(S(=O)(=O)NC(=O)Nc2c3c(cc4c2CCC4)CCC3)nn1C [Example 176, 3-(N-((1,2,3,5,6,7-Hexahydro-s-indacen-4-yl)carbamoyl)sulfamoyl)-N-(2-hydroxyethyl)-N,1-dimethyl-1H-pyrazole-5-carboxamide, partial ammonium salt]
